# Numbered stars: 1 amine (or outer) side, 2 acyl side, 3 side chain; on linkers, the order of the positions; unused ones are H or OH. Bridge positions count the residues as written; N and C are the ends. Square brackets hold non-standard residues; d marks the D form. Peptide text beside a SMILES is read from it. ξ: configuration not given here. ξαMeNle(6-ylidene) = CC(CCCC=[*:3])(N[*:1])C(=O)[*:2]; Nle = CCCC[C@H](N)C(=O)O
# Test: Melting temperature determination by circular dichroism
# Format: physicochemical
# Settings: 50 μM in ddH2O, CD at 222 nm, 5-95° C.
# Description: To assay the effect of macrocycle formation on meltine temperature, peptidomimetic macrocycles or unmodified peptides are dissolved in distilled H2O (e.g. at a final concentration of 50 μM) and the Tm is determined by measuring the change in ellipticity over a temperature range (e.g. 4 to 95° C.) on a spectropolarimeter (e.g., Jasco J-710) using standard parameters (e.g. wavelength 222 nm; step resolution, 0.5 nm; speed, 20 nm/sec; accumulations, 10; response, 1 sec; bandwidth, 1 nm; temperature increase rate: 1° C./min; path length, 0.1 cm).
# Lyophilized SP-1 was dissolved in ddH2O to a final concentration of 50 μM. Tm was determined by measuring the circular dichroism (CD) spectra in a Jasco-810 spectropolarimeter at a fixed wavelength of 222 nm between the temperatures of 5-95° C. The following parameters were used for the measurement: data pitch, 0.1° C.; bandwidth, 1 nm and path length, 0.1 cm averaging the signal for 16 seconds.
compound,measurement,value
CCCC[C@H](NC(=O)C1(C)CCCC=CCCCC(C)(NC(=O)[C@H](C)NC(=O)[C@H](CC(C)C)NC(=O)[C@H](Cc2c[nH]cn2)NC(=O)[C@H](CCCNC(=N)N)NC(=O)[C@H](C)NC(=O)[C@@H](NC(=O)[C@H](CC(N)=O)NC(=O)[C@H](CCCNC(=N)N)NC(=O)[C@@H](NC(=O)[C@@H](NC(=O)[C@H](CC(=O)O)NC(C)=O)[C@@H](C)CC)[C@@H](C)CC)[C@@H](C)CC)C(=O)N[C@@H](C(C)C)C(=O)NCC(=O)N[C@@H](CC(=O)O)C(=O)N1)C(=O)N[C@@H](CC(=O)O)C(=O)N[C@@H](CCCNC(=N)N)C(=O)N[C@@H](CO)C(=O)N[C@H](C(N)=O)[C@@H](C)CC (stereo partly shown) [SP-1] (Ac-DIIRNIARHLA[ξαMeNle(6-ylidene)]VGD[ξαMeNle(6-ylidene)][Nle]DRSI-NH2; staple 12-16),temperature up to which helical conformation is maintained,up to 64 °C
